According to patent US8604023B2, “1,4-benzodiazepinone compounds and their use in treating cancer” (The Regents of the University of Michigan, priority 2009, dated 2013):
pEC50: −log10 of the molar value.

How the values were obtained:
HOP-62 = assay: cancer cell growth inhibition (SRB); format: cell-based, human; details: Non-Small Cell Lung Cancer
UACC-62 = assay: cancer cell growth inhibition (SRB); format: cell-based, human; details: Melanoma
SN12C = assay: cancer cell growth inhibition (SRB); format: cell-based, human; details: Renal Cancer
U251 = assay: cancer cell growth inhibition (SRB); format: cell-based, human; details: CNS Cancer
UO-31 = assay: cancer cell growth inhibition (SRB); format: cell-based, human; details: Renal Cancer
SW-620 = assay: cancer cell growth inhibition (SRB); format: cell-based, human; details: Colon Cancer
NCI-H522 = assay: cancer cell growth inhibition (SRB); format: cell-based, human; details: Non-Small Cell Lung Cancer
786-0 = assay: cancer cell growth inhibition (SRB); format: cell-based, human; details: Renal Cancer
SK-MEL-28 = assay: cancer cell growth inhibition (SRB); format: cell-based, human; details: Melanoma
OVCAR-5 = assay: cancer cell growth inhibition (SRB); format: cell-based, human; details: Ovarian Cancer
SF-295 = assay: cancer cell growth inhibition (SRB); format: cell-based, human; details: CNS Cancer
SK-MEL-5 = assay: cancer cell growth inhibition (SRB); format: cell-based, human; details: Melanoma
NCI-H23 = assay: cancer cell growth inhibition (SRB); format: cell-based, human; details: Non-Small Cell Lung Cancer
MOLT-4 = assay: cancer cell growth inhibition (SRB); format: cell-based, human; details: Leukemia
ACHN = assay: cancer cell growth inhibition (SRB); format: cell-based, human; details: Renal Cancer
M14 = assay: cancer cell growth inhibition (SRB); format: cell-based, human; details: Melanoma
MCF7 = assay: cancer cell growth inhibition (SRB); format: cell-based, human; details: Breast Cancer
SNB-19 = assay: cancer cell growth inhibition (SRB); format: cell-based, human; details: CNS Cancer
HOP-92 = assay: cancer cell growth inhibition (SRB); format: cell-based, human; details: Non-Small Cell Lung Cancer
NCI/ADR-RES = assay: cancer cell growth inhibition (SRB); format: cell-based, human; details: Breast Cancer
COLO 205 = assay: cancer cell growth inhibition (SRB); format: cell-based, human; details: Colon Cancer
OVCAR-3 = assay: cancer cell growth inhibition (SRB); format: cell-based, human; details: Ovarian Cancer
Ramos cells = assay: cytotoxicity in Ramos cells; format: cell-based; details: Homo sapiens
Procedure: The compounds listed in Table 5 were tested for cytotoxicity in Ramos cells. The assay was conducted as described in K. M. Johnson et al. Chemistry & Biology 2005, 12, 485-496.

CAKI-1 = assay: cancer cell growth inhibition (SRB); format: cell-based, human; details: Renal Cancer
T-47D = assay: cancer cell growth inhibition (SRB); format: cell-based, human; details: Breast Cancer
RPMI-8226 = assay: cancer cell growth inhibition (SRB); format: cell-based, human; details: Leukemia
NCI-H460 = assay: cancer cell growth inhibition (SRB); format: cell-based, human; details: Non-Small Cell Lung Cancer
A549/ATCC = assay: cancer cell growth inhibition (SRB); format: cell-based, human; details: Non-Small Cell Lung Cancer
RXF 393 = assay: cancer cell growth inhibition (SRB); format: cell-based, human; details: Renal Cancer
OVCAR-4 = assay: cancer cell growth inhibition (SRB); format: cell-based, human; details: Ovarian Cancer
CCRF-CEM = assay: cancer cell growth inhibition (SRB); format: cell-based, human; details: Leukemia
LOXIMVI = assay: cancer cell growth inhibition (SRB); format: cell-based, human; details: Melanoma
UACC-257 = assay: cancer cell growth inhibition (SRB); format: cell-based, human; details: Melanoma
NCI-H322M = assay: cancer cell growth inhibition (SRB); format: cell-based, human; details: Non-Small Cell Lung Cancer
HT29 = assay: cancer cell growth inhibition (SRB); format: cell-based, human; details: Colon Cancer
K-562 = assay: cancer cell growth inhibition (SRB); format: cell-based, human; details: Leukemia
MALME-3M = assay: cancer cell growth inhibition (SRB); format: cell-based, human; details: Melanoma
NCI-H226 = assay: cancer cell growth inhibition (SRB); format: cell-based, human; details: Non-Small Cell Lung Cancer
BT-549 = assay: cancer cell growth inhibition (SRB); format: cell-based, human; details: Breast Cancer
TK-10 = assay: cancer cell growth inhibition (SRB); format: cell-based, human; details: Renal Cancer
HS 578T = assay: cancer cell growth inhibition (SRB); format: cell-based, human; details: Breast Cancer
SK-OV-3 = assay: cancer cell growth inhibition (SRB); format: cell-based, human; details: Ovarian Cancer
SNB-75 = assay: cancer cell growth inhibition (SRB); format: cell-based, human; details: CNS Cancer
OVCAR-8 = assay: cancer cell growth inhibition (SRB); format: cell-based, human; details: Ovarian Cancer
MDA-MB-435 = assay: cancer cell growth inhibition (SRB); format: cell-based, human; details: Breast Cancer
HCT-15 = assay: cancer cell growth inhibition (SRB); format: cell-based, human; details: Colon Cancer
SK-MEL-2 = assay: cancer cell growth inhibition (SRB); format: cell-based, human; details: Melanoma
EKVX = assay: cancer cell growth inhibition (SRB); format: cell-based, human; details: Non-Small Cell Lung Cancer
DU-145 = assay: cancer cell growth inhibition (SRB); format: cell-based, human; details: Prostate Cancer
HCT-116 = assay: cancer cell growth inhibition (SRB); format: cell-based, human; details: Colon Cancer
SF-268 = assay: cancer cell growth inhibition (SRB); format: cell-based, human; details: CNS Cancer
HL-60(TB) = assay: cancer cell growth inhibition (SRB); format: cell-based, human; details: Leukemia
SR = assay: cancer cell growth inhibition (SRB); format: cell-based, human; details: Leukemia
MDA-MB-231/ATCC = assay: cancer cell growth inhibition (SRB); format: cell-based, human; details: Breast Cancer
A498 = assay: cancer cell growth inhibition (SRB); format: cell-based, human; details: Renal Cancer
SF-539 = assay: cancer cell growth inhibition (SRB); format: cell-based, human; details: CNS Cancer
IGROV1 = assay: cancer cell growth inhibition (SRB); format: cell-based, human; details: Ovarian Cancer
HCC-2998 = assay: cancer cell growth inhibition (SRB); format: cell-based, human; details: Colon Cancer
KM12 = assay: cancer cell growth inhibition (SRB); format: cell-based, human; details: Colon Cancer
PC-3 = assay: cancer cell growth inhibition (SRB); format: cell-based, human; details: Prostate Cancer

## O=C1Nc2ccc(Cl)cc2C(c2ccc(N3CCNCC3)nc2)=NC1Cc1ccccc1Cl (stereo not drawn) [Compound V-23]
HOP-62
  growth inhibition of the cancer cells: +++ (at least 75% growth inhibition of the cancer cells)
UACC-62
  growth inhibition of the cancer cells: ++ (40%-75% growth inhibition of the cancer cells)
SN12C
  growth inhibition of the cancer cells: +++ (at least 75% growth inhibition of the cancer cells)
U251
  growth inhibition of the cancer cells: +++ (at least 75% growth inhibition of the cancer cells)
UO-31
  growth inhibition of the cancer cells: +++ (at least 75% growth inhibition of the cancer cells)
SW-620
  growth inhibition of the cancer cells: +++ (at least 75% growth inhibition of the cancer cells)
NCI-H522
  growth inhibition of the cancer cells: +++ (at least 75% growth inhibition of the cancer cells)
786-0
  growth inhibition of the cancer cells: +++ (at least 75% growth inhibition of the cancer cells)
SK-MEL-28
  growth inhibition of the cancer cells: +++ (at least 75% growth inhibition of the cancer cells)
OVCAR-5
  growth inhibition of the cancer cells: +++ (at least 75% growth inhibition of the cancer cells)
SF-295
  growth inhibition of the cancer cells: +++ (at least 75% growth inhibition of the cancer cells)
SK-MEL-5
  growth inhibition of the cancer cells: +++ (at least 75% growth inhibition of the cancer cells)
NCI-H23
  growth inhibition of the cancer cells: ++ (40%-75% growth inhibition of the cancer cells)
MOLT-4
  growth inhibition of the cancer cells: ++ (40%-75% growth inhibition of the cancer cells)
ACHN
  growth inhibition of the cancer cells: +++ (at least 75% growth inhibition of the cancer cells)
M14
  growth inhibition of the cancer cells: +++ (at least 75% growth inhibition of the cancer cells)
MCF7
  growth inhibition of the cancer cells: +++ (at least 75% growth inhibition of the cancer cells)
SNB-19
  growth inhibition of the cancer cells: ++ (40%-75% growth inhibition of the cancer cells)
HOP-92
  growth inhibition of the cancer cells: ++ (40%-75% growth inhibition of the cancer cells)
NCI/ADR-RES
  growth inhibition of the cancer cells: + (less than 40% growth inhibition of the cancer cells)
COLO 205
  growth inhibition of the cancer cells: ++ (40%-75% growth inhibition of the cancer cells)
OVCAR-3
  growth inhibition of the cancer cells: +++ (at least 75% growth inhibition of the cancer cells)
Ramos cells
  pEC50: ≥ 5.30
CAKI-1
  growth inhibition of the cancer cells: +++ (at least 75% growth inhibition of the cancer cells)
T-47D
  growth inhibition of the cancer cells: ++ (40%-75% growth inhibition of the cancer cells)
RPMI-8226
  growth inhibition of the cancer cells: ++ (40%-75% growth inhibition of the cancer cells)
NCI-H460
  growth inhibition of the cancer cells: +++ (at least 75% growth inhibition of the cancer cells)
A549/ATCC
  growth inhibition of the cancer cells: +++ (at least 75% growth inhibition of the cancer cells)
RXF 393
  growth inhibition of the cancer cells: +++ (at least 75% growth inhibition of the cancer cells)
OVCAR-4
  growth inhibition of the cancer cells: ++ (40%-75% growth inhibition of the cancer cells)
CCRF-CEM
  growth inhibition of the cancer cells: ++ (40%-75% growth inhibition of the cancer cells)
LOXIMVI
  growth inhibition of the cancer cells: +++ (at least 75% growth inhibition of the cancer cells)
UACC-257
  growth inhibition of the cancer cells: +++ (at least 75% growth inhibition of the cancer cells)
NCI-H322M
  growth inhibition of the cancer cells: + (less than 40% growth inhibition of the cancer cells)
HT29
  growth inhibition of the cancer cells: +++ (at least 75% growth inhibition of the cancer cells)
K-562
  growth inhibition of the cancer cells: +++ (at least 75% growth inhibition of the cancer cells)
MALME-3M
  growth inhibition of the cancer cells: +++ (at least 75% growth inhibition of the cancer cells)
NCI-H226
  growth inhibition of the cancer cells: + (less than 40% growth inhibition of the cancer cells)
BT-549
  growth inhibition of the cancer cells: +++ (at least 75% growth inhibition of the cancer cells)
TK-10
  growth inhibition of the cancer cells: +++ (at least 75% growth inhibition of the cancer cells)
HS 578T
  growth inhibition of the cancer cells: ++ (40%-75% growth inhibition of the cancer cells)
SK-OV-3
  growth inhibition of the cancer cells: ++ (40%-75% growth inhibition of the cancer cells)
SNB-75
  growth inhibition of the cancer cells: ++ (40%-75% growth inhibition of the cancer cells)
OVCAR-8
  growth inhibition of the cancer cells: ++ (40%-75% growth inhibition of the cancer cells)
MDA-MB-435
  growth inhibition of the cancer cells: +++ (at least 75% growth inhibition of the cancer cells)
HCT-15
  growth inhibition of the cancer cells: +++ (at least 75% growth inhibition of the cancer cells)
SK-MEL-2
  growth inhibition of the cancer cells: ++ (40%-75% growth inhibition of the cancer cells)
EKVX
  growth inhibition of the cancer cells: +++ (at least 75% growth inhibition of the cancer cells)
DU-145
  growth inhibition of the cancer cells: +++ (at least 75% growth inhibition of the cancer cells)
HCT-116
  growth inhibition of the cancer cells: +++ (at least 75% growth inhibition of the cancer cells)
SF-268
  growth inhibition of the cancer cells: ++ (40%-75% growth inhibition of the cancer cells)
HL-60(TB)
  growth inhibition of the cancer cells: +++ (at least 75% growth inhibition of the cancer cells)
SR
  growth inhibition of the cancer cells: ++ (40%-75% growth inhibition of the cancer cells)
MDA-MB-231/ATCC
  growth inhibition of the cancer cells: +++ (at least 75% growth inhibition of the cancer cells)
A498
  growth inhibition of the cancer cells: + (less than 40% growth inhibition of the cancer cells)
SF-539
  growth inhibition of the cancer cells: +++ (at least 75% growth inhibition of the cancer cells)
IGROV1
  growth inhibition of the cancer cells: +++ (at least 75% growth inhibition of the cancer cells)
HCC-2998
  growth inhibition of the cancer cells: +++ (at least 75% growth inhibition of the cancer cells)
KM12
  growth inhibition of the cancer cells: +++ (at least 75% growth inhibition of the cancer cells)
PC-3
  growth inhibition of the cancer cells: ++ (40%-75% growth inhibition of the cancer cells)
